Results from publication PMC9090415, “Discovery of small molecule inhibitors of Plasmodium falciparum apicoplast DNA polymerase” (Journal of Enzyme Inhibition and Medicinal Chemistry, 2022).
Where two headings read alike, the source gives them in different places.

Target: P. falciparum apicoplast DNA polymerase (Pf-apPOL) (Plasmodium falciparum, UniProt Q8ILY1)
Test: Fluorescence-based high-throughput DNA polymerase assay (molecular beacon), primary screen and dose-response
Format: biochemical
Details: for DNA Pol: unit not given, 90 min, 10 µM; for % inhibition apPOL 180' 2.5 / % inhibition apPOL 180' 5 / % inhibition apPOL 180' 10 / % inhibition apPOL 180' 20 / % inhibition apPOL 180' 40 / % inhibition apPOL 180' 80: read at 180'
Method in brief: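 Single-point screening used 10 µM compound with 20 nM polymerase, 20 nM hairpin substrate and 6 µM dNTPs for 90 min at 25 °C. Confirmatory titrations (2.5–80 µM) followed fluorescence at three times, and IC50 was derived from a fit including a cooperativity term n.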

[1] = first dose-response, concentration 20

Sequence of P. falciparum apicoplast DNA polymerase (Pf-apPOL) (Q8ILY1 entry or part of it): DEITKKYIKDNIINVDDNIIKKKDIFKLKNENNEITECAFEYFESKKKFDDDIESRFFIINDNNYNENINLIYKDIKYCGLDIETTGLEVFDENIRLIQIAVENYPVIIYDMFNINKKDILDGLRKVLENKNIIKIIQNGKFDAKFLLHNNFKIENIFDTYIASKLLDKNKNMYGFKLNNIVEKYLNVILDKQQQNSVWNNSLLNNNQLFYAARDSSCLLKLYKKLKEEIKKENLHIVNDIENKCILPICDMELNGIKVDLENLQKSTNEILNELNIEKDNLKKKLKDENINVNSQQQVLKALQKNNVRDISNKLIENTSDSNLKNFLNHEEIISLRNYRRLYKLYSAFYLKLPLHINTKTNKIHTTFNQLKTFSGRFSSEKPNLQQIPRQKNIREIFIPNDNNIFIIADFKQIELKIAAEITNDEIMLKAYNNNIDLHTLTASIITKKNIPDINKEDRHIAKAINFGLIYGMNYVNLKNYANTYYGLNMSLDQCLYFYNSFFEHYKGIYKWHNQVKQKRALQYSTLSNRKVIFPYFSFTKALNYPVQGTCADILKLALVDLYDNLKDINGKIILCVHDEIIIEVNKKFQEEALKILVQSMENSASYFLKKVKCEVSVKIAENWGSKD

COc1ccccc1CC(=O)N1CCc2c(nc3cc(-c4ccccc4Cl)[nH]n3c2=O)C1 [Molecule 49, COc1ccccc1CC(=O)N1CCc2c(C1)nc1n(c2=O)[nH]c(c1)c1ccccc1Cl]
DNA Pol (186 hits, DNA Pol (screen value)): 46 | DNA Pol ('DNA Pol' (screen value)): 46 | % inhibition Apo pol 10' 2.5 (DRC-1, read at 10', concentration 2.5): 7.56% | % inhibition Apo pol 10' 5 (DRC-1, read at 10', concentration 5): 17% | % inhibition Apo pol 10' 10 (DRC-1, read at 10', concentration 10): 40% | % inhibition Apo pol 10' 20 (DRC-1, read at 10', concentration 20): 65% | % inhibition Apo pol 10' 40 (DRC-1, read at 10', concentration 40): 80% | % inhibition Apo pol 10' 80 (DRC-1, read at 10', concentration 80): 74% | % inhibition Apol 90' 2.5 (DRC-1, read at 90', concentration 2.5): -3.41% | % inhibition Apol 90' 5 (DRC-1, read at 90', concentration 5): 2.19% | % inhibition Apol 90' 10 (DRC-1, read at 90', concentration 10): 20% | % inhibition Apol 90' 20 (DRC-1, read at 90', concentration 20): 40% | % inhibition Apol 90' 40 (DRC-1, read at 90', concentration 40): 68% | % inhibition Apol 90' 80 (DRC-1, read at 90', concentration 80): 71% | % inhibition apPOL 180' 2.5 (DRC-1, concentration 2.5): -9% | % inhibition apPOL 180' 5 (DRC-1, concentration 5): -5.67% | % inhibition apPOL 180' 10 (DRC-1, concentration 10): 8% | % inhibition apPOL 180' 20 (DRC-1, concentration 20): 20% | % inhibition apPOL 180' 40 (DRC-1, concentration 40): 52% | % inhibition apPOL 180' 80 (DRC-1, concentration 80): 59% | % inhibition Apo pol 5' (DRC-2, 5', concentration 40): 56% | % inhibition Apol 40' (DRC-2, concentration 5): 20% | % inhibition Apol 40' (DRC-2, concentration 10): 44% | % inhibition Apol 40' (DRC-2, concentration 20): 56% | % inhibition apPOL 180' (DRC-2, concentration 20): 44% | % inhibition apPOL 180' (DRC-2, concentration 40): 56% | % inhibition apPOL 180' (DRC-2, concentration 80): 52% | % inhibition Apo pol 5' 2.5 (DRC-2, read at 5', concentration 2.5): 3.77% | % inhibition Apo pol 5' 5 (DRC-2, read at 5', concentration 5): 16% | % inhibition Apo pol 5' 10 (DRC-2, read at 5', concentration 10): 38% | % inhibition Apo pol 5' 20 (DRC-2, read at 5', concentration 20): 49% | % inhibition Apo pol 5' 40 (DRC-2, read at 5', concentration 40): 56% | % inhibition Apo pol 5' 80 (DRC-2, read at 5', concentration 80): 41% | % inhibition Apol 40' 2.5 (DRC-2, read at 40', concentration 2.5): 3.38% | % inhibition Apol 40' 5 (DRC-2, read at 40', concentration 5): 20% | % inhibition Apol 40' 10 (DRC-2, read at 40', concentration 10): 44% | % inhibition Apol 40' 20 (DRC-2, read at 40', concentration 20): 56% | % inhibition Apol 40' 40 (DRC-2, read at 40', concentration 40): 64% | % inhibition Apol 40' 80 (DRC-2, read at 40', concentration 80): 57% | % inhibition ApPOL 90' 2.5 (DRC-2, read at 90', concentration 2.5): 3.2% | % inhibition ApPOL 90' 5 (DRC-2, read at 90', concentration 5): 18% | % inhibition ApPOL 90' 10 (DRC-2, read at 90', concentration 10): 43% | % inhibition ApPOL 90' 20 (DRC-2, read at 90', concentration 20): 54% | % inhibition ApPOL 90' 40 (DRC-2, read at 90', concentration 40): 63% | % inhibition ApPOL 90' 80 (DRC-2, read at 90', concentration 80): 58% | % inhibition apPOL 180' 2.5 (DRC-2, concentration 2.5): -1% | % inhibition apPOL 180' 5 (DRC-2, concentration 5): 12% | % inhibition apPOL 180' 10 (DRC-2, concentration 10): 34% | % inhibition apPOL 180' 20 (DRC-2, concentration 20): 44% | % inhibition apPOL 180' 40 (DRC-2, concentration 40): 56% | % inhibition apPOL 180' 80 (DRC-2, concentration 80): 52% | % inhibition Apo pol 10' (first dose-response, 10', concentration 10): 40% | % inhibition Apol 90' (first dose-response, concentration 10): 20% | % inhibition Apol 90' [1]: 40% | % inhibition apPOL 180' [1]: 20% | % inhibition apPOL 180' (first dose-response, concentration 40): 52%

COc1ccc(CNC(=O)Cn2nc3c(c2NC(=O)Cc2cccs2)CSC3)cc1 [Molecule 55]
IC50 (read-out: IC50 Pf-apPOL, Table 2): 10 ± 2 µM | IC50 (supplemental file 2, sheet IC50 nontoxic compounds, Pf-apPOL): 10.5 µM
